# Biological target: human (hAC) acid ceramidase (Homo sapiens (Human), UniProt Q13510)
# Assay: fluorescent-based in vitro assay on human acid ceramidase
# Format: biochemical
# Settings: hAC-enriched lysosomal lysate from HEK293 cells; fluorogenic probe 5 μM; pH 4.5
# Source text: To evaluate the potency of the compounds towards acid ceramidase, a fluorescence-based in vitro assay previously described in literature (Bedia C et al., ChemBioChem, 2007, 8, 642-648) was implemented and optimized. This assay is based on a “fluorogenic probe” containing a coumarin group and a sphingoid base moiety (see figure below), which is not fluorescent in itself, but upon enzymatic cleavage by acid ceramidase followed by a chemical transformation liberates the fluorescent molecule umbelliferone (7-hydroxychromen-2-one). By quantifying the generation of umbelliferone using a fluorescence plate-reader, the level of enzymatic activity can be measured, whereby IC50 values of compounds that inhibit this activity can be generated.
# Lysosomal lysate, enriched with acid ceramidase, was prepared from a cell line stably expressing human acid ceramidase. In the assay, the fluorogenic probe (or substrate) serves as a ceramide-analogue, which is recognized and hydrolyzed at the amide bond by acid ceramidase from the enriched lysate to yield the fatty acid and coumarinic aminodiol. By treating the solution with sodium periodate (NaIO4), the coumarinic aminodiol is subsequently oxidized into an aldehyde intermediate, which undergoes a β-elimination reaction to release the strongly fluorescent umbelliferone.
# A lysosomal human acid ceramidase protein preparation was obtained from HEK293 cells stably expressing acid ceramidase suspended in 20 mM Tris HCl (pH 7.5) with 0.32 M sucrose. The cell solution was sonicated and centrifuged at 800×g for 15 min at 4° C. Supernatants were then centrifuged at 12,000×g for 30 min at 4° C. Pellets were re-suspended in PBS pH 7.4 and subjected to two freeze-thaw cycles at −80° C. The suspension was finally centrifuged at 105,000×g for 1 hour at 4° C. and protein concentration was measured in the supernatant with bicinchinonic-acid based protein assay. This human acid ceramidase-enriched preparation allowed us to further optimize the enzymatic assay and to use smaller amounts of lysate (2 μg/well) and substrate (5 μM).
# The assay was performed in Optiplate 96-wells black plates, with each reaction well containing a mixture of 25 mM sodium acetate buffer pH 4.5 and a fixed amount of protein (2 μg) in a volume of 85 μL. After 30 mins of pre-incubation with test compounds (diluted 20× from DMSO stock solutions at different concentrations), the fluorogenic probe was added (diluted 20× from EtOH stock solution, final concentration 5 μM). After incubation for 3 hours at 37° C., the reactions were stopped with 50 μL of methanol and 100 μL of a 2.5 mg/mL NalO4 fresh solution in 100 mM Glycine/NaOH pH 10.6. The plate was incubated at 37° C. for 2 hours in the dark and fluorescence intensities were measured at excitation/emission wavelengths of 360/446 nm. Negative control samples consisted of the same incubation mixture in the absence of protein extracts. The IC50 values or percent of inhibition, at the indicated concentration, of selected compounds described in the invention are reported in Table 2.
# Sequence of human (hAC) acid ceramidase (Q13510 22-142): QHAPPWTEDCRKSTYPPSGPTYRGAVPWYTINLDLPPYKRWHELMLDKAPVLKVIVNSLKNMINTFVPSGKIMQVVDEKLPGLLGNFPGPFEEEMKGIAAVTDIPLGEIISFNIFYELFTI
# Sequence of human (hAC) acid ceramidase (Q13510 143-395): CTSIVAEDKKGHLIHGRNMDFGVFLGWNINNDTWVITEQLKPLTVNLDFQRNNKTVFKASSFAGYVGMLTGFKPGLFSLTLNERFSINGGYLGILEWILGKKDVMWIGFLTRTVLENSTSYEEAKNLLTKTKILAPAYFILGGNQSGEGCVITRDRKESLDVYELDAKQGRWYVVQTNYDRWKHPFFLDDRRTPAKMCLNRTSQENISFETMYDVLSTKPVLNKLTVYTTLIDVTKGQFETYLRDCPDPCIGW
row,IC50,Compound
1,63 ± 22 nM,"COc1ccc(CCCCNC(=O)n2c(=O)oc3ccccc32)cc1 [Example 45, N-[4-(4-Methoxyphenyl)butyl]-2-oxo-1,3-benzoxazole-3-carboxamide]"
2,34 ± 14 nM,"CCCCCCCCNC(=O)n1c(=O)oc2ccccc21 [Example 42, N-Octyl-2-oxo-1,3-benzoxazole-3-carboxamide]"
3,135 ± 56 nM,"CCC[C@H]1CC[C@H](CNC(=O)n2c(=O)oc3ccccc32)CC1 [Example 40, 2-Oxo-N-[(4-propylcyclohexyl)methyl]-1,3-benzoxazole-3-carboxamide]"
4,11 nM,"N#Cc1ccc2oc(=O)n(C(=O)NCCCCc3ccccc3)c2c1 [Example 15, 5-Cyano-2-oxo-N-(4-phenylbutyl)-1,3-benzoxazole-3-carboxamide]"
5,3 ± 2 nM,"O=C(NCCCCc1ccccc1)n1c(=O)oc2ccc([N+](=O)[O-])cc21 [Example 11, 5-Nitro-2-oxo-N-(4-phenylbutyl)-1,3-benzoxazole-3-carboxamide]"
6,117 ± 26 nM,"Cc1ccc2oc(=O)n(C(=O)NCCCCc3ccccc3)c2c1 [Example 8, 5-Methyl-2-oxo-N-(4-phenylbutyl)-1,3-benzoxazole-3-carboxamide]"
7,18 ± 11 nM,"O=C(NCCCCc1ccccc1)n1c(=O)oc2c(Br)cccc21 [Example 19, 7-Bromo-2-oxo-N-(4-phenylbutyl)-1,3-benzoxazole-3-carboxamide]"
8,68 nM,"COc1ccc(-c2ccc3oc(=O)n(C(=O)NCCCCc4ccccc4)c3c2)cc1 [Example 21, 5-(4-Methoxyphenyl)-2-oxo-N-(4-phenylbutyl)-1,3-benzoxazole-3-carboxamide]"
9,66 ± 9 nM,"Cc1ccc2c(c1)oc(=O)n2C(=O)NCCCCc1ccccc1 [Example 9, 6-Methyl-2-oxo-N-(4-phenylbutyl)-1,3-benzoxazole-3-carboxamide]"
10,18 ± 8 nM,"O=C(NCCCCc1ccccc1)n1c(=O)oc2cc(Cl)c(Cl)cc21 [Example 16, 5,6-Dichloro-2-oxo-N-(4-phenylbutyl)-1,3-benzoxazole-3-carboxamide]"
11,49 nM,"O=C(NCCCc1cccc(F)c1)n1c(=O)oc2ccccc21 [Example 50, N-[3-(3-Fluorophenyl)propyl]-2-oxo-1,3-benzoxazole-3-carboxamide]"
12,50 ± 7 nM,"CCCCCCCNC(=O)n1c(=O)oc2ccccc21 [Example 59, N-Heptyl-2-oxo-1,3-benzoxazole-3-carboxamide]"
13,10 ± 7 nM,"O=C(NCCCCc1ccccc1)n1c(=O)oc2cc(F)ccc21 [Example 3, 6-Fluoro-2-oxo-N-(4-phenylbutyl)-1,3-benzoxazole-3-carboxamide]"
14,14 ± 4 nM,"O=C(c1ccc(Cl)cc1)c1ccc2c(c1)oc(=O)n2C(=O)NCCCCc1ccccc1 [Example 38, 6-(4-Chlorobenzoyl)-2-oxo-N-(4-phenylbutyl)-1,3-benzoxazole-3-carboxamide]"
15,9 ± 7 nM,"O=C(NCCCCc1ccccc1)n1c(=O)oc2ccc(Cl)cc21 [Example 4, 5-Chloro-2-oxo-N-(4-phenylbutyl)-1,3-benzoxazole-3-carboxamide]"
16,22 nM,"O=C(NCCCCc1ccccc1)n1c(=O)oc2ccc(-c3ccccc3)cc21 [Example 20, 2-Oxo-5-phenyl-N-(4-phenylbutyl)-1,3-benzoxazole-3-carboxamide]"
17,11 ± 5 nM,"O=C(NCCCCc1ccccc1)n1c(=O)oc2ccc(C(F)(F)F)cc21 [Example 13, 2-Oxo-N-(4-phenylbutyl)-5-(trifluoromethyl)-1,3-benzoxazole-3-carboxamide]"
18,16 ± 14 nM,"CCC(=O)c1ccc2c(c1)oc(=O)n2C(=O)NCCCCc1ccccc1 [Example 36, 2-Oxo-N-(4-phenylbutyl)-6-propanoyl-1,3-benzoxazole-3-carboxamide]"
19,62 ± 44 nM,"O=C(NCCCCC1CCCCC1)n1c(=O)oc2ccccc21 [Example 39, N-(4-Cyclohexylbutyl)-2-oxo-1,3-benzoxazole-3-carboxamide]"
20,0.8 ± 0.1 nM,"O=C(NCCCCc1ccccc1)n1c(=O)oc2cccc(-c3ccccc3)c21 [Example 26, 2-Oxo-4-phenyl-N-(4-phenylbutyl)-1,3-benzoxazole-3-carboxamide]"

row,IC50,Compound
1,55 ± 6 nM,"O=C(NCCCc1ccccc1)n1c(=O)oc2ccccc21 [Example 43, 2-Oxo-N-(3-phenylpropyl)-1,3-benzoxazole-3-carboxamide]"
2,67 ± 5 nM,"COc1ccc(-c2ccc3c(c2)oc(=O)n3C(=O)NCCCCc2ccccc2)cc1 [Example 24, 6-(4-Methoxyphenyl)-2-oxo-N-(4-phenylbutyl)-1,3-benzoxazole-3-carboxamide]"
3,19 ± 2 nM,"CCCc1ccc(CNC(=O)n2c(=O)oc3ccccc32)cc1 [Example 41, 2-Oxo-N-[(4-propylphenyl)methyl]-1,3-benzoxazole-3-carboxamide]"
4,57 nM,"O=C(NCCCCc1ccc2ccccc2c1)n1c(=O)oc2ccccc21 [Example 52, N-[4-(2-Naphthyl)butyl]-2-oxo-1,3-benzoxazole-3-carboxamide]"
5,29 ± 1 nM,"O=C(c1ccccc1)c1ccc2c(c1)oc(=O)n2C(=O)NCCCCc1ccccc1 [Example 37, 6-Benzoyl-2-oxo-N-(4-phenylbutyl)-1,3-benzoxazole-3-carboxamide]"
6,56 ± 12 nM,"O=C(NCCCCc1ccccc1)n1c(=O)oc2ccc(F)cc21 [Example 2, 5-Fluoro-2-oxo-N-(4-phenylbutyl)-1,3-benzoxazole-3-carboxamide]"
7,52 ± 9 nM,"COc1ccc2c(c1)oc(=O)n2C(=O)NCCCCc1ccccc1 [Example 10, 6-Methoxy-2-oxo-N-(4-phenylbutyl)-1,3-benzoxazole-3-carboxamide]"
8,75 nM,"O=C(NCCCCc1ccc(F)cc1)n1c(=O)oc2ccccc21 [Example 46, N-[4-(4-Fluorophenyl)butyl]-2-oxo-1,3-benzoxazole-3-carboxamide]"
9,56 ± 14 nM,"O=C(NCCCCc1ccccc1)n1c(=O)oc2ccc(-c3ccc(F)cc3)cc21 [Example 22, 5-(4-Fluorophenyl)-2-oxo-N-(4-phenylbutyl)-1,3-benzoxazole-3-carboxamide]"
10,20 ± 9 nM,"O=C(NCCCCc1ccccc1)n1c(=O)oc2cc(C(F)(F)F)ccc21 [Example 14, 2-Oxo-N-(4-phenylbutyl)-6-(trifluoromethyl)-1,3-benzoxazole-3-carboxamide]"
11,3 ± 1 nM,"O=C(NCCCCc1ccccc1)n1c(=O)oc2cc([N+](=O)[O-])ccc21 [Example 12, 6-Nitro-2-oxo-N-(4-phenylbutyl)-1,3-benzoxazole-3-carboxamide]"
12,91 ± 10 nM,"O=C(NCCCCc1ccccc1)n1c(=O)oc2c(-c3ccccc3)cccc21 [Example 27, 2-Oxo-7-phenyl-N-(4-phenylbutyl)-1,3-benzoxazole-3-carboxamide]"
13,54 ± 12 nM,"O=C(NCCCCCc1ccccc1)n1c(=O)oc2ccccc21 [Example 57, 2-Oxo-N-(5-phenylpentyl)-1,3-benzoxazole-3-carboxamide]"
14,22 ± 11 nM,"O=C(NCCCCc1ccccc1)n1c(=O)oc2ccc(Br)cc21 [Example 6, 5-Bromo-2-oxo-N-(4-phenylbutyl)-1,3-benzoxazole-3-carboxamide]"
15,23 ± 5 nM,"Cc1cccc2c1oc(=O)n2C(=O)NCCCCc1ccccc1 [Example 18, 7-Methyl-2-oxo-N-(4-phenylbutyl)-1,3-benzoxazole-3-carboxamide]"
16,99 ± 58 nM,"O=C(NCCCCc1cccs1)n1c(=O)oc2ccccc21 [Example 44, 2-Oxo-N-[4-(2-thienyl)butyl]-1,3-benzoxazole-3-carboxamide]"
17,33 ± 4 nM,"O=C(NCCCCc1ccccc1)n1c(=O)oc2cc(Cl)ccc21 [Example 5, 6-Chloro-2-oxo-N-(4-phenylbutyl)-1,3-benzoxazole-3-carboxamide]"
18,152 ± 87 nM,"O=C(NCCCCc1ccccc1)n1c(=O)oc2cc(O)ccc21 [Example 35, 6-Hydroxy-2-oxo-N-(4-phenylbutyl)-1,3-benzoxazole-3-carboxamide]"
19,99 ± 58 nM,"O=C(NCCCCCCc1ccccc1)n1c(=O)oc2ccccc21 [Example 58, 2-Oxo-N-(6-phenylhexyl)-1,3-benzoxazole-3-carboxamide]"
20,1 ± 1 nM,"O=C(NCCCCc1ccccc1)n1c(=O)oc2cccc(F)c21 [Example 56, 4-Fluoro-2-oxo-N-(4-phenylbutyl)-1,3-benzoxazole-3-carboxamide]"

row,Compound,IC50
1,"O=C(NCCCCc1ccccc1)n1c(=O)oc2ccccc21 [Example 1, 2-Oxo-N-(4-phenylbutyl)-1,3-benzoxazole-3-carboxamide]",64 ± 7 nM

# Source: patent US10226452B2, “Benzoxazolone derivatives as acid ceramidase inhibitors, and their use as medicaments” (FONDAZIONE ISTITUTO ITALIANO DI TECNOLOGIA, priority 2014, dated 2019)
